Laboratory results taken from patent US20250011368A1, “DLL3 TARGETING PEPTIDES AND CONSTRUCTS THEREOF” (MARIANA ONCOLOGY INC., priority 2023, published 2025).
Numbered stars: 1 amine (or outer) side, 2 acyl side, 3 side chain; on linkers, the order of the positions; unused ones are H or OH. Bridge positions count the residues as written; N and C are the ends. Square brackets hold non-standard residues; d marks the D form. Peptide text beside a SMILES is read from it. * marks the point of attachment. DOTA = O=C(O)CN1CCN(CC(=O)O)CCN(CC(=O)*)CCN(CC(=O)O)CC1; Phe(4-CF3) = N[C@@H](Cc1ccc(C(F)(F)F)cc1)C(=O)O; Trp(5-F) = N[C@@H](Cc1c[nH]c2ccc(F)cc12)C(=O)O; Trp(7-aza) = N[C@@H](Cc1c[nH]c2ncccc12)C(=O)O; Pro(trans-4-F) = O=C(O)[C@@H]1C[C@@H](F)CN1; 2Nal = N[C@@H](Cc1ccc2ccccc2c1)C(=O)O; Nva(3-Et) = CCC(CC)[C@H](N)C(=O)O; CH2 = C([*:1])[*:2]

T1: human DLL3 (Homo sapiens, UniProt Q9NYJ7)
T1 sequence (Q9NYJ7 27-618): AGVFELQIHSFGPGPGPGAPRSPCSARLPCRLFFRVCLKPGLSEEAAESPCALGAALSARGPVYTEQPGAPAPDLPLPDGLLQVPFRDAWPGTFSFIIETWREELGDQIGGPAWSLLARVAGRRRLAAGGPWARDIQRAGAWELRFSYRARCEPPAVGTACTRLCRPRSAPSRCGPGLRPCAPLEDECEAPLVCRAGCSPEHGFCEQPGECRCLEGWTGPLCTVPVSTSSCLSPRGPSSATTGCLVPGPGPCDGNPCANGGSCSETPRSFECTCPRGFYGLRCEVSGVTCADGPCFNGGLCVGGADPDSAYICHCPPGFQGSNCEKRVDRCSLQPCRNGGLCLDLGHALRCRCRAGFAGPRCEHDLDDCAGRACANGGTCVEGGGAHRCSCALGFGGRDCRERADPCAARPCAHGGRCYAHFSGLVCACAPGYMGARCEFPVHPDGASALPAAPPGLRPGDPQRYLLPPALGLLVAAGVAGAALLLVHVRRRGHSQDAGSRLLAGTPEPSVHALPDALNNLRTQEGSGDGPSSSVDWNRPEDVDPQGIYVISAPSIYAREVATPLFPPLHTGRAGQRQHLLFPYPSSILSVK

T2: Biotinylated human DLL3 (Delta Like Canonical Notch Ligand 3) (human, UniProt Q9NYJ7 27-492, limits assumed, biotinylated (site not stated))
T2 construct: also called Delta-like protein 3; biotinylated target ligand human DLL3
T2 sequence: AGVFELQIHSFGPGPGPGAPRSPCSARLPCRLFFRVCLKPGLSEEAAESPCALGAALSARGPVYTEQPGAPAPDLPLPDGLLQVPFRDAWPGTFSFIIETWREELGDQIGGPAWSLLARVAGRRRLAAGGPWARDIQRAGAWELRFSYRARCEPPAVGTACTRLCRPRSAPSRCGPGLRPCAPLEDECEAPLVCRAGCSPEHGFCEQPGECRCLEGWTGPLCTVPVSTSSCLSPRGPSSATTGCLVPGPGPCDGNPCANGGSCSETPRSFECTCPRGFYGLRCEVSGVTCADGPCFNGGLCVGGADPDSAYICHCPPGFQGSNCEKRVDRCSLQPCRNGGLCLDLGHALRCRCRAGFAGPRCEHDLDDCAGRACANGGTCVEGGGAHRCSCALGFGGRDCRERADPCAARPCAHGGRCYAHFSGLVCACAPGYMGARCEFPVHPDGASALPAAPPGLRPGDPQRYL


What was measured:
[1] = target: T1, human DLL3; assay: Affinity determination by Surface Plasmon Resonance (SPR); type: binding; conditions: 25° C., biotinylated human DLL3 immobilized on streptavidin sensor chip, 1:1 binding model; read-out: SPR KD
Outline: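 Kinetic and affinity constants were derived by fitting sensorgrams to a 1:1 binding model. Graded compound concentrations flowed at 100 μL/minute in 20 mM phosphate running buffer with 2% DMSO over streptavidin-immobilized biotinylated human DLL3, reference-subtracted.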

[2] = system: SHP-77 cells; assay: Cell binding (total uptake) of [177Lu]Lu-test peptide, SHP-77 cells; type: cell-based; conditions: SHP77 cells, 1 hour at 37° C., bound fraction
Protocol: (§1) [^177Lu]LuCl3 was received from venders in HCl solution. For every mCi of [^177Lu]LuCl3 added to the reaction vial (1.5 mL Eppendorf vial), ammonium acetate buffer (0.2 M, pH 4.9, 100 μL, containing 1% w/v ascorbic acid and 6% v/v ethanol) and peptide conjugate (1 nmol). A peptide conjugate of the present disclosure is also referred to herein as a “chelator-peptide”. The pH of the solution was determined to be approximately 5 by using pH strips. The reaction vial was incubated at 80° C., 700 RPM for 17-20 minutes. A sample from the reaction was analyzed by RP-HPLC using an Agilent Infinity II 1260 HPLC to determine reaction completion and radiochemical purity of [^177Lu]Lu-chelator-peptide. HPLC conditions: Waters XBridge BEH C18 Column, 130 Å, 3.5 um, 4.6 mm×250 mm; mobile phase: Solvent A=water (with 0.1% formic acid), solvent B=acetonitrile (with 0.1% formic acid). Gradients: 25-45% B in 10 minutes, 45-65% B in 12 minutes, 65-90% in 6 minutes at a flow rate of 0.5 mL/minute. Required amounts of the product was formulated in 1% PBSA for cell studies.
(§2) The study was conducted using SHP-77, CT26.WT, and CT26.DLL3 cells (Table 7) Adherent cell studies: The cells were cultured in appropriate culture media (20 mL) in tissue culture treated T150 flasks at 37° C. and 5% CO2. Adherent cells were detached (60-70% confluent) using 5 mL Versene at 37° C. for 3 minutes. After confirming the viability using countess and count of detached cells using Trypan blue, the cells were centrifuged at 4° C. for 5 minutes (1,000 rpm). The cell pellet obtained was washed once with PBS and resuspended in 1% PBSA to obtain the desired cell concentration (5-25 million cells/mL).
Suspension cell studies: The cells were cultured in appropriate culture media (20 mL) in tissue culture treated T150 flasks at 37° C. and 5% CO2. After confirming the viability and count of detached cells using Trypan blue, the cells were centrifuged at 4° C. for 5 minutes (1,000 rpm). The cell pellet obtained was washed once with PBS and resuspended in 1% PBSA to obtain the desired cell concentration (5-25 million cells/mL).
(§3) Cell numbers used for the assay were in the range of 5 million cells/condition −25 million cells/condition.
(§4) Total uptake: Cells were incubated with 300 μL (0.8 μCi) of the incubation buffer (containing radiolabeled peptide [^177Lu] Lu-test peptide) for 1 hour at 37° C. (Table 8). Post incubation, the cells were pelleted and washed 2 times using cold PBS+1% BSA. The supernatant and washes were combined and counted together as “unbound fraction” in a gamma counter. The cells were then resuspended in 300 μL of 1% PBS+1% BSA and counted in the gamma counter as “bound fraction”.
(§5) In these Tables, “A” represents %≤25; “B” represents 25<%≤50; “C” represents %>50.

[3] = system: SHP-77 tumors; assay: Ex vivo biodistribution of radiolabeled peptides in nude mice bearing SHP-77 tumors; conditions: [177Lu]Lu labelling, nude mice bearing SHP-77 tumors (n = 3), 24 hours post-injection
Outline: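 Nude mice bearing SHP-77 xenografts (200-400 mm^3) or tumor-naïve mice (5-7 weeks) received an intravenous tail-vein bolus of [^177Lu]Lu-peptide and were euthanized at pre-set time points. Tissues were weighed and gamma-counted, with counts decay-corrected to injection time. Values are % IA/g per tissue from the injected activity of each mouse.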

[4] = system: CT26.DLL3 cells; assay: Cell binding (total uptake) of [177Lu]Lu-test peptide, CT26.DLL3 cells; type: cell-based; conditions: 1 hour at 37° C.
Protocol: as §1, §2, §3, §4, §5

[5] = system: CT26.DLL3 cells; assay: Internalization (out of bound fraction) of [177Lu]Lu-test peptide, CT26.DLL3 cells; type: cell-based; conditions: 1 hour at 37° C., glycine pH 2.5 wash
Protocol: as §1, §2, §3, §4
Internalization: The resuspended cells in 300 μl of 1% PBSA and counted in the gamma counter as “bound fraction” were collected in 1.5 mL Eppendorf tube and pelleted. The pelleted cells were incubated with 300 μl of 50 mM Glycine pH=2.5 for 3 minutes and then pelleted discarding the supernatant. This process was repeated one more time. The pelleted cells were washed with 300 μl of cold 1% PBSA and then resuspended in 300 μl 0.3M NaOH. This was counted in the gamma counter as “internalized fraction”.
as §5

[6] = target: T2, Biotinylated human DLL3 (Delta Like …); assay: SPR; letter grade, key in paragraph 614
Protocol: Biotinylated target ligand human DLL3 was immobilized on a streptavidin sensor chip. A reference surface was set up for nonspecific binding and refractive index changes. For analysis of the kinetics of interactions, varying concentrations of samples were injected at a flow rate of 100 μL/minute using running buffer containing 20 mM phosphate buffer with 2.7 mM KCl, 137 mM NaCl, 0.05% Surfactant P20 and 2% DMSO. Sensorgram curves were fitted with 1:1 binding model, and affinity and kinetic parameters were obtained using Biacore Insight evaluation 4.0. software.

Kd [1] [nM]	kidney uptake (% IA/g) [3]	tumor uptake (% IA/g) [3]	Kd [6] [nM]	Molecule	% Binding [2]	% Binding [4]	% Internalization (out of bound fraction) [5]
1 to 10	D (% IA/g > 10 in kidney)	A (0 < % IA/g ≤ 5 in tumor)	–	CC[C@H](C)[C@H](NC(=O)[C@@H](NC(=O)[C@H](Cc1c[nH]c2ccccc12)NC(C)=O)[C@@H](C)O)C(=O)N[C@H]1CSSC[C@@H](C(=O)N[C@@H](Cc2c[nH]c3ccccc23)C(=O)N2CCC[C@H]2C(=O)N[C@H](CCCCNC(=O)CN2CCN(CC(=O)O)CCN(CC(=O)O)CCN(CC(=O)O)CC2)C(N)=O)NC(=O)[C@H](CC(=O)O)NC(=O)[C@H](Cc2cnc[nH]2)NC(=O)[C@H](Cc2c[nH]c3ccccc23)NC(=O)[C@H](CC(N)=O)NC(=O)[C@H](CC(N)=O)NC1=O [compound 23, Ac-W-T-I-C(3)-N-N-W-H-D-C(3)-W-P-[D-Lys(DOTA)]-NH2] (Ac-WTICNNWHDCWP[dK](DOTA)-NH2; disulfide 4-10)	A (%≤25)	A (%≤25)	–
1 to 10	D (% IA/g > 10 in kidney)	A (0 < % IA/g ≤ 5 in tumor)	–	CC[C@H](C)[C@H](NC(=O)[C@@H](NC(=O)[C@H](Cc1c[nH]c2ccccc12)NC(C)=O)[C@@H](C)O)C(=O)N[C@H]1CSSC[C@@H](C(=O)N[C@@H](Cc2c[nH]c3ccccc23)C(=O)N2CCC[C@H]2C(=O)N[C@H](CCCCNC(=O)CN2CCN(CC(=O)O)CCN(CC(=O)O)CCN(CC(=O)O)CC2)C(N)=O)NC(=O)[C@H](CC(=O)O)NC(=O)[C@H](Cc2cnc[nH]2)NC(=O)[C@H](Cc2ccc3ccccc3c2)NC(=O)[C@H](CC(N)=O)NC(=O)[C@H](CC(N)=O)NC1=O [compound 75, Ac-W-T-I-C(3)-N-N-(2Nal)-H-D-C(3)-W-P-[D-Lys(DOTA)]-NH2] (Ac-WTICNN[2Nal]HDCWP[dK](DOTA)-NH2; disulfide 4-10)	A (%≤25)	B (25<%≤50)	B (25<%≤50)
< 1	C (0 < % IA/g ≤ 10 in kidney)	A (0 < % IA/g ≤ 5 in tumor)	–	CCC(CC)[C@H](NC(=O)[C@@H](NC(=O)[C@H](Cc1c[nH]c2ccc(F)cc12)NC(C)=O)[C@@H](C)O)C(=O)N[C@H]1CSSC[C@@H](C(=O)N[C@@H](Cc2c[nH]c3ncccc23)C(=O)N2C[C@H](F)C[C@H]2C(=O)N[C@H](CCCCNC(=O)CN2CCN(CC(=O)O)CCN(CC(=O)O)CCN(CC(=O)O)CC2)C(N)=O)NC(=O)[C@H](CC(=O)O)NC(=O)[C@H](Cc2cnc[nH]2)NC(=O)[C@H](Cc2ccc(C(F)(F)F)cc2)NC(=O)[C@H](CC(N)=O)NC(=O)[C@H](CC(N)=O)NC1=O [compound 146, Ac-(5Fluoro-W)-T-(Env)-C(3)-N-N-(4CF3-F)-H-D-C(3)-(7Aza-W)-(trans4Fluoro-P)-[D-Lys(DOTA)]-NH2] (Ac-[Trp(5-F)]T[Nva(3-Et)]CNN[Phe(4-CF3)]HDC[Trp(7-aza)][Pro(trans-4-F)][dK](DOTA)-NH2; disulfide 4-10)	A (%≤25)	–	–
< 1	–	–	–	CC[C@H](C)[C@H](NC(=O)[C@@H](NC(=O)[C@H](Cc1c[nH]c2ccccc12)NC(C)=O)[C@@H](C)O)C(=O)N[C@H]1CSCSC[C@@H](C(=O)N[C@@H](Cc2c[nH]c3ccccc23)C(=O)N2CCC[C@H]2C(=O)N[C@H](CCCCNC(=O)CN2CCN(CC(=O)O)CCN(CC(=O)O)CCN(CC(=O)O)CC2)C(N)=O)NC(=O)[C@H](CC(=O)O)NC(=O)[C@H](Cc2cnc[nH]2)NC(=O)[C@H](Cc2ccc3ccccc3c2)NC(=O)[C@H](CC(N)=O)NC(=O)[C@H](CC(N)=O)NC1=O [compound 165, Ac-WTI-C(1)-NN(2Nal)HD-C(1)-WP-[D-Lys(DOTA)]-NH2] (Ac-WTICNN[2Nal]HDCWP[dK](DOTA)-NH2; linker 4-10 via CH2)	A (%≤25)	–	–
< 1	–	–	–	CC[C@H](C)[C@H](NC(=O)[C@@H](NC(=O)[C@H](Cc1c[nH]c2ccccc12)NC(C)=O)[C@@H](C)O)C(=O)N[C@H]1CSSC[C@@H](C(=O)N[C@@H](Cc2c[nH]c3ccccc23)C(=O)N2CCC[C@H]2C(=O)N[C@@H](CCCCNC(=O)CN2CCN(CC(=O)O)CCN(CC(=O)O)CCN(CC(=O)O)CC2)C(N)=O)NC(=O)[C@H](CC(=O)O)NC(=O)[C@H](Cc2cnc[nH]2)NC(=O)[C@H](Cc2ccc3ccccc3c2)NC(=O)[C@H](CC(N)=O)NC(=O)[C@H](CC(N)=O)NC1=O [compound 166, Ac-W-T-I-C(3)-N-N-(2Nal)-H-D-C(3)-W-P-[L-Lys(DOTA)]-NH2] (Ac-WTICNN[2Nal]HDCWPK(DOTA)-NH2; disulfide 4-10)	A (%≤25)	–	–
–	–	–	≤ 1	Ac-WTICNN[2Nal]HDCWP[dK]-NH2 (disulfide 4-10; not fully specified (residue 13); printed as Ac-W-T-I-C(3)-N-N-(2Nal)-H-D-C(3)-W-P-{D-Lys[PEG8-D-Lys(DOTA)-PEG12-COCH2Ph-4Br]}-NH2, disulfide C(3)-C(3)) [Cpd No. 252]	–	–	–
